According to patent US20230356105A1, “TETRAAZADODECANE BASED CHELATING AGENTS FOR SEPARATION OF RARE EARTH ELEMENTS AND METHOD THEREFOR” (Ustav Organicke Chemie a Biochemie AV CR V.V.I., priority 2020, published 2023):

Assays:
[1] = Ultrafiltration to remove benzoic acid and effect precipitation of L5 complexes (Example 26); type: physicochemical
Experimental: Stock solutions were pipetted into a 20 mL glass vial to prepare the reaction mixture: • 1. 938 μL 196 mM aqueous chelator L5 (pH=4) • 2. 836 μL 1000 mM aqueous benzoic acid (stock solution containing 1 equivalent NaOH) • 3. 8000 μL H2O • 4. 952 μL 175.5 mM aqueous LnCl3 solution (from a stock solution containing a mixture of Ln=Nd, Pr, Tb, and Dy, in a ratio of 3.3:1:1:1, Nd:Pr:Tb:Dy)
The reaction solution was then titrated to pH 6.5 by addition of aqueous 2 M NaOH. The solution was stirred on a magnetic stir-plate at room temperature for 1 hour, and the precipitate was removed from the solution by filtration through a 0.45 μtm regenerated cellulose syringe filter. From this filtered solution, 1 mL was set aside for elemental analysis as the “initial” solution, 1 mL was set aside as a “control” solution in a clean 4 mL glass vial with a PTFE-coated stir bar to be stirred at 600 rpm at room temperature on a magnetic stirrer, and the remaining 9 mL were diluted slightly by addition of 2 mL H2O, then filtered on an ultrafiltration system with a nanofiltration membrane with molecular weight cut-off of 100-250 Da (NFS membrane, Synder Filtration, CA, USA), 4 bar N2 to pressurize the system, magnetic stiffing at 250 rpm, and continual addition of water to replace the filtered volume. The filtrate was collected in an Erlenmeyer flask, and a total volume of 50 mL was filtered over 11 hours. After this time, the “retained” reaction mixture, now having a volume of 10.5 mL and with some precipitate present, was transferred to a clean 20 mL glass vial and stirred by PTFE-coated stir bar on a magnetic stirrer at 600 rpm for an additional 10 hours, as was the control solution. After this additional time, samples of both the control solution and the retained solution from the ultrafiltration were prepared for elemental analysis by filtration through 0.45 μm nylon syringe filters. The initial, control, and retained solutions were then analysed by ICP-OES for determination of absolute Nd, Pr, Dy, and Tb content.

[2] = Separation of binary mixture of rare-earth metals by precipitation from solution using L1 (Example 7); type: physicochemical; conditions: supernatant
Experimental: Two series of reaction mixtures were prepared, where one rare-earth metal was held constant (Gd or Lu) while the other was a variable rare-earth metal element (except Pm). […] The well plate was sealed with transparent adhesive tape to prevent evaporation and was anchored to a shaker. The well-plate was shaken for 5 days at room temperature at 900 rpm.

[3] = control solution, stirred without ultrafiltration
[4] = initial solution (L5 + benzoic acid, pH 6.5, filtered)
[5] = retained solution after ultrafiltration (100-250 Da membrane)
[6] = retained*, recalculated from end volume 10.5 to original 9.0 mL

SMILES: O=C(O)CN1CCN(CC(=O)O)CCN(Cc2cccc3ccccc23)CCN(CC(=O)O)CC1 [L5, 2,2′,2″-(10-(naphthalene-1-ylmethyl)-1,4,7,10-tetraazacyklododekane-1,4,7-triyl)triacetic acid]
- concentration Dy [1, 3]: 760 µM
- concentration Nd [1, 3]: 1800 µM
- concentration Pr [1, 3]: 400 µM
- concentration Tb [1, 3]: 750 µM
- concentration sum of M [1, 3]: 3710 µM
- concentration Dy [1, 4]: 770 µM
- concentration Nd [1, 4]: 1800 µM
- concentration Pr [1, 4]: 400 µM
- concentration Tb [1, 4]: 760 µM
- concentration sum of M [1, 4]: 3730 µM
- concentration Dy [1, 5]: 440 µM
- concentration Nd [1, 5]: 1030 µM
- concentration Pr [1, 5]: 230 µM
- concentration Tb [1, 5]: 420 µM
- concentration sum of M [1, 5]: 2120 µM
- concentration Dy [1, 6]: 510 µM
- concentration Nd [1, 6]: 1200 µM
- concentration Pr [1, 6]: 270 µM
- concentration Tb [1, 6]: 490 µM
- concentration sum of M [1, 6]: 2470 µM

SMILES: O=C(O)CN1CCN(CC(=O)O)CCN(Cc2ccccc2)CCN(CC(=O)O)CC1 [L1, 2,2′,2″-(10-benzyl-1,4,7,10-tetraazacyclododecane-1,4,7-triyl)triacetic Acid]
- [mM] Gd ([2]; M1=Ce, M2=Gd): 0.149 mM
- [mM] M1 ([2]; M1=Ce, M2=Gd): 0.349 mM
- [mM] Lu ([2]; M1=Ce, M2=Lu): 5.174 mM
- [mM] M1 ([2]; M1=Ce, M2=Lu): 5.195 mM
- [mM] Gd ([2]; M1=Dy, M2=Gd): 0.196 mM
- [mM] M1 ([2]; M1=Dy, M2=Gd): 0.344 mM
- [mM] Lu ([2]; M1=Dy, M2=Lu): 5.252 mM
- [mM] M1 ([2]; M1=Dy, M2=Lu): 5.268 mM
- [mM] Gd ([2]; M1=Er, M2=Gd): 5.127 mM
- [mM] M1 ([2]; M1=Er, M2=Gd): 5.697 mM
- [mM] Lu ([2]; M1=Er, M2=Lu): 5.298 mM
- [mM] M1 ([2]; M1=Er, M2=Lu): 5.558 mM
- [mM] Gd ([2]; M1=Eu, M2=Gd): 0.141 mM
- [mM] M1 ([2]; M1=Eu, M2=Gd): 0.157 mM
- [mM] Lu ([2]; M1=Eu, M2=Lu): 6.000 mM
- [mM] M1 ([2]; M1=Eu, M2=Lu): 5.459 mM
- [mM] Gd ([2]; M1=Gd, M2=Gd): 0.208 mM
- [mM] M1 ([2]; M1=Gd, M2=Gd): 0.208 mM
- [mM] Lu ([2]; M1=Gd, M2=Lu): 3.875 mM
- [mM] M1 ([2]; M1=Gd, M2=Lu): 0.325 mM
- [mM] Gd ([2]; M1=Ho, M2=Gd): 0.219 mM
- [mM] M1 ([2]; M1=Ho, M2=Gd): 0.522 mM
- [mM] Lu ([2]; M1=Ho, M2=Lu): 5.643 mM
- [mM] M1 ([2]; M1=Ho, M2=Lu): 5.424 mM
- [mM] Gd ([2]; M1=La, M2=Gd): 0.134 mM
- [mM] M1 ([2]; M1=La, M2=Gd): 0.535 mM
- [mM] Lu ([2]; M1=La, M2=Lu): 5.188 mM
- [mM] M1 ([2]; M1=La, M2=Lu): 4.968 mM
- [mM] Gd ([2]; M1=Lu, M2=Gd): 0.291 mM
- [mM] M1 ([2]; M1=Lu, M2=Gd): 4.93 mM
- [mM] Lu ([2]; M1=Lu, M2=Lu): 5.403 mM
- [mM] M1 ([2]; M1=Lu, M2=Lu): 5.403 mM
- [mM] Gd ([2]; M1=Nd, M2=Gd): 0.169 mM
- [mM] M1 ([2]; M1=Nd, M2=Gd): 0.249 mM
- [mM] Lu ([2]; M1=Nd, M2=Lu): 4.301 mM
- [mM] M1 ([2]; M1=Nd, M2=Lu): 0.456 mM
- [mM] Gd ([2]; M1=Pr, M2=Gd): 0.161 mM
- [mM] M1 ([2]; M1=Pr, M2=Gd): 0.268 mM
- [mM] Lu ([2]; M1=Pr, M2=Lu): 5.165 mM
- [mM] M1 ([2]; M1=Pr, M2=Lu): 5.067 mM
- [mM] Gd ([2]; M1=Sc, M2=Gd): 0.295 mM
- [mM] M1 ([2]; M1=Sc, M2=Gd): 5.882 mM
- [mM] Lu ([2]; M1=Sc, M2=Lu): 4.903 mM
- [mM] M1 ([2]; M1=Sc, M2=Lu): 5.49 mM
- [mM] Gd ([2]; M1=Sm, M2=Gd): 0.165 mM
- [mM] M1 ([2]; M1=Sm, M2=Gd): 0.179 mM
- [mM] Lu ([2]; M1=Sm, M2=Lu): 4.229 mM
- [mM] M1 ([2]; M1=Sm, M2=Lu): 0.305 mM
- [mM] Gd ([2]; M1=Tb, M2=Gd): 0.162 mM
- [mM] M1 ([2]; M1=Tb, M2=Gd): 0.235 mM
- [mM] Lu ([2]; M1=Tb, M2=Lu): 5.094 mM
- [mM] M1 ([2]; M1=Tb, M2=Lu): 5.272 mM
- [mM] Gd ([2]; M1=Tm, M2=Gd): 0.239 mM
- [mM] M1 ([2]; M1=Tm, M2=Gd): 2.653 mM
- [mM] Lu ([2]; M1=Tm, M2=Lu): 5.423 mM
- [mM] M1 ([2]; M1=Tm, M2=Lu): 5.453 mM
- [mM] Gd ([2]; M1=Y, M2=Gd): 0.183 mM
- [mM] M1 ([2]; M1=Y, M2=Gd): 0.471 mM
- [mM] Lu ([2]; M1=Y, M2=Lu): 5.188 mM
- [mM] M1 ([2]; M1=Y, M2=Lu): 5.24 mM
- [mM] Gd ([2]; M1=Yb, M2=Gd): 0.279 mM
- [mM] M1 ([2]; M1=Yb, M2=Gd): 4.218 mM
- [mM] Lu ([2]; M1=Yb, M2=Lu): 5.148 mM
- [mM] M1 ([2]; M1=Yb, M2=Lu): 5.226 mM
